Reference: PubChem BioAssay (NCI)
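Following 48 hours of exposure in 96-well plates, responses at five concentrations were used to interpolate endpoints linearly. GI50 marks 50% less growth. TGI: concentration producing complete growth inhibition.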

How the values were obtained:
Assay in all cases: NCI-60 cell line screen, 48 h
HL-60(TB) leukemia = system: HL-60(TB) leukemia
EKVX NSCLC = system: EKVX NSCLC
A549 NSCLC = system: A549 NSCLC
SNB-75 CNS = system: SNB-75 CNS
NCI-H460 lung = system: NCI-H460 lung
SN12C renal = system: SN12C renal
OVCAR-4 ovarian = system: OVCAR-4 ovarian
NCI-H226 lung = system: NCI-H226 lung
HCT-15 colon = system: HCT-15 colon
XF 498 CNS = system: XF 498 CNS
HCT-116 colon = system: HCT-116 colon
IGROV1 ovarian = system: IGROV1 ovarian
UACC-62 melanoma = system: UACC-62 melanoma
U251 CNS = system: U251 CNS
SNB-78 CNS = system: SNB-78 CNS
MCF7 breast = system: MCF7 breast
HOP-62 NSCLC = system: HOP-62 NSCLC
M14 melanoma = system: M14 melanoma

| Structure (SMILES) | TGI (HL-60(TB) leukemia) [µM] | TGI (EKVX NSCLC) [µM] | TGI (A549 NSCLC) [µM] | TGI (SNB-75 CNS) [µM] | TGI (NCI-H460 lung) [µM] | TGI (SN12C renal) [µM] | TGI (OVCAR-4 ovarian) [µM] | TGI (NCI-H226 lung) [µM] | TGI (HCT-15 colon) [µM] | GI50 (XF 498 CNS) [µM] | TGI (XF 498 CNS) [µM] | TGI (HCT-116 colon) [µM] | TGI (IGROV1 ovarian) [µM] | TGI (UACC-62 melanoma) [µM] | TGI (U251 CNS) [µM] | TGI (SNB-78 CNS) [µM] | GI50 (MCF7 breast) [µM] | TGI (MCF7 breast) [µM] | TGI (HOP-62 NSCLC) [µM] | TGI (M14 melanoma) [µM] |
| --- | --- | --- | --- | --- | --- | --- | --- | --- | --- | --- | --- | --- | --- | --- | --- | --- | --- | --- | --- | --- |
| [Cl-].[Rh+3].c1ccc(-c2ccnc3c2ccc2c(-c4ccccc4)ccnc23)cc1.c1ccc(-c2ccnc3c2ccc2c(-c4ccccc4)ccnc23)cc1.c1ccc(-c2ccnc3c2ccc2c(-c4ccccc4)ccnc23)cc1 | 60.3 | > 91.7 | > 100 | > 100 | > 100 | > 100 | > 100 | > 100 | > 100 | 23.1 | 89.3 | > 100 | > 100 | > 100 | > 100 | > 100 | 71.3 | > 100 | > 100 |  |
| CC(C)(C)OC(=O)C1=C(C(=O)OC(C)(C)C)SC2(S1)C(C(=O)OC(C)(C)C)=C(C(=O)OC(C)(C)C)Sc1c2ssc1=O | > 100 | > 100 | > 100 |  | > 100 | > 100 | > 100 |  | > 100 |  |  | > 100 | > 100 | > 100 | > 100 |  |  | > 100 | > 100 | > 100 |
| C/C=C(/C)C(=O)O[C@@H]1c2c(C)coc2C[C@H]2CC[C@H](O)[C@H](C)[C@]21C | 87 | > 100 |  |  | > 100 | > 100 | > 100 | > 100 | > 100 |  |  | > 100 | > 100 | > 100 | > 100 |  |  | 87.8 | > 100 | > 100 |
| C=C(C)C1Cc2c(cc(O)c3c(=O)c4ccccc4n(C)c23)O1 (stereo not drawn) | > 100 |  | > 100 | 37.2 | > 100 | > 100 | 26.7 | > 100 | > 100 |  | 41.8 | > 100 |  |  | > 100 | > 100 |  |  | 61.3 | 90.4 |
| O=[N+]([O-])c1ccc(/C=C/c2ccc(N=Nc3ccc(/C=C/c4ccc([N+](=O)[O-])cc4S(=O)(=O)O)c(S(=O)(=O)O)c3)cc2S(=O)(=O)O)c(S(=O)(=O)O)c1 | > 100 | > 100 | > 100 | > 100 | > 100 | > 100 | > 100 | > 100 | > 100 |  | > 100 | > 100 | > 100 | > 100 | > 100 | > 100 |  | > 100 | > 100 |  |
